This experiment addresses endogenous cellular BACE2 in the Ins1e rat cell line (Rattus norvegicus (Rat), UniProt Q6IE75). Nature of the experiment: Assay for BACE inhibition by measuring cellular TMEM27 cleavage (ELISA of shed hTMEM27 from INS-TMEM27 cells). The class given is cell-based. The settings on record: assay a): cellular TMEM27 cleavage, INS-TMEM27 cells (superscript a). The essentials:
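Shed human TMEM27 is quantified by ELISA in medium of TetOn INS1e cells after 46 h at 37 °C. Compound is dosed across a concentration range, followed 2 h later by doxycycline induction at 500 ng/ml. Each concentration's readout is curve-fitted to give the EC50.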

Structures are written as SMILES. pIC50: −log10 of the molar value.

Chain of endogenous cellular BACE2 in the Ins1e rat cell line (Q6IE75 63-514): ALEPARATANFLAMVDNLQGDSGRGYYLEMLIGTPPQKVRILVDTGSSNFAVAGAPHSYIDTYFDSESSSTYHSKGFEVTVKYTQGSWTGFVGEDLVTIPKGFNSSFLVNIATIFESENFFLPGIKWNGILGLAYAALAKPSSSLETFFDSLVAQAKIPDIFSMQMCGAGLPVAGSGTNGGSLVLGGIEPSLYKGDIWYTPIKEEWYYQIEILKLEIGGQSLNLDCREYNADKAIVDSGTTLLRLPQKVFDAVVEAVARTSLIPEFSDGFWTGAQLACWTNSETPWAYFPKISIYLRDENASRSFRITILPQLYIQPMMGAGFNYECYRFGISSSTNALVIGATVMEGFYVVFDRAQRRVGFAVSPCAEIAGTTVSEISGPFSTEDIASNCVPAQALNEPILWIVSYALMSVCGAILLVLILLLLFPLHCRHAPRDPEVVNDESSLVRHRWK

The pIC50 is the negative decadic logarithm of the IC50, by convention in mol/L. Lower therefore signals a high IC50. `CN1C(=O)C(C)(C)[C@@](C)(c2cc(NC(=O)[C@@](C)(O)C(F)(F)F)ccc2F)N=C1N` [Example 142, (R)—N-(3-((S)-2-amino-1,4,5,5-tetramethyl-6-oxo-1,4,5,6-tetrahydropyrimidin-4-yl)-4-fluorophenyl)-3,3,3-trifluoro-2-hydroxy-2-methylpropanamide] gave a pIC50 of 7.05. To `CN1C(=O)C(C)(C)[C@@](C)(c2cc(NCC3CCCOC3)ccc2F)N=C1N` (stereo partly drawn) [Example 90, (S)-2-Amino-6-{2-fluoro-5-[(tetrahydro-pyran-3-ylmethyl)-amino]-phenyl}-3,5,5,6-tetramethyl-5,6-dihydro-3H-pyrimidin-4-one] belongs 6.33; to `C[C@@H]1CC(Nc2ccc(F)c([C@@]3(C)N=C(N)N(C)C(=O)C3(C)C)c2)C[C@H](C)O1` (stereo partly drawn) [Example 155, (6S)-2-Amino-6-(5-((2R,6S)-2,6-dimethyltetrahydro-2H-pyran-4-ylamino)-2-fluorophenyl)-3,5,5,6-tetramethyl-5,6-dihydropyrimidin-4(3H)-one], 6.91.

Take `COc1cccc(Nc2ccc(F)c([C@@]3(C)N=C(N)N(C)C(=O)C3(C)C)c2)c1` [Example 79, (S)-2-Amino-6-(2-fluoro-5-(3-methoxyphenylamino)phenyl)-3,5,5,6-tetramethyl-5,6-dihydropyrimidin-4(3H)-one]: the pIC50 was 7.36.

As to `Cc1ccccc1Nc1ccc(F)c([C@@]2(C)N=C(N)N(C)C(=O)C2(C)C)c1` [Example 55, (S)-2-Amino-6-(2-fluoro-5-(o-tolylamino)phenyl)-3,5,5,6-tetramethyl-5,6-dihydro-pyrimidin-4(3H)-one], the pIC50 was 6.94. With `CN1C(=O)C(C)(C)[C@@](C)(c2cc(NCC3CC3)ccc2F)N=C1N` [Example 52, (S)-2-Amino-6-(5-(C-cyclopropylmethylamino)-2-fluorophenyl)-3,5,5,6-tetramethyl-5,6-dihydropyrimidin-4(3H)-one] the figure was 8.15; with `COc1ccc(Nc2ccc(F)c([C@@]3(C)N=C(N)N(C)C(=O)C3(C)C)c2)cc1` [Example 72, (S)-2-Amino-6-(2-fluoro-5-(4-methoxyphenylamino)phenyl)-3,5,5,6-tetramethyl-5,6-dihydropyrimidin-4(3H)-one], 6.70. With `CN1C(=O)C(C)(C)[C@@](C)(c2cc(NC3[C@H]4[C@@H](C[C@H]3O)[C@@H]4C(=O)O)ccc2F)N=C1N` (stereo partly drawn) [Example 117, (1S,3R,5R,6S)-2-(3-((S)-2-amino-1,4,5,5-tetramethyl-6-oxo-1,4,5,6-tetrahydropyrimidin-4-yl)-4-fluorophenylamino)-3-hydroxybicyclo[3.1.0]hexane-6-carboxylic acid] the figure was 6.65; with `CN1C(=O)C(C)(C)[C@@](C)(c2cc(NC3CCC(C(F)(F)F)CC3)ccc2F)N=C1N` (stereo partly drawn) [Example 41, (S)-2-amino-6-(2-fluoro-5-(4-(trifluoromethyl)cyclohexylamino)phenyl)-3,5,5,6-tetramethyl-5,6-dihydropyrimidin-4(3H)-one], 6.37; with `CN1C(=O)C(C)(C)[C@@](C)(c2cc(Nc3ccccn3)ccc2F)N=C1N` [Example 105, (S)-2-Amino-6-(2-fluoro-5-(pyridin-2-ylamino)phenyl)-3,5,5,6-tetramethyl-5,6-dihydropyrimidin-4(3H)-one], 7.92.

Turning to `CN1C(=O)C(C)(C)[C@@](C)(c2cc(NC(=O)C3(O)CCC3)ccc2F)N=C1N` [Example 147, (S)—N-(3-(2-amino-1,4,5,5-tetramethyl-6-oxo-1,4,5,6-tetrahydropyrimidin-4-yl)-4-fluorophenyl)-1-hydroxycyclobutanecarboxamide], the pIC50 was 6.57. With `CN1C(=O)C(C)(C)[C@@](C)(c2cc(NC(=O)C(C)(C)F)ccc2F)N=C1N` [Example 16, (S)—N-(3-(2-Amino-1,4,5,5-tetramethyl-6-oxo-1,4,5,6-tetrahydropyrimidin-4-yl)-4-fluorophenyl)-2-fluoro-2-methylpropanamide] the figure was 8.05; with `CC[C@H]1C(=O)N(C)C(N)=N[C@]1(C)c1cccc(NC(=O)C2(C(F)(F)F)CC2)c1` [Example 11, 1-Trifluoromethyl-cyclopropanecarboxylic acid [3-((4S,5R)-2-amino-5-ethyl-1,4-dimethyl-6-oxo-1,4,5,6-tetrahydro-pyrimidin-4-yl)-phenyl]-amide], 7.85; with `CC(=O)OC1CC2CC1CC2Nc1ccc(F)c([C@@]2(C)N=C(N)N(C)C(=O)C2(C)C)c1` (stereo partly drawn) [Example 93, Acetic acid 5-[3-((S)-2-amino-1,4,5,5-tetramethyl-6-oxo-1,4,5,6-tetrahydro-pyrimidin-4-yl)-4-fluoro-phenylamino]-bicyclo[2.2.1]hept-2-yl ester], 7.60. The molecule `Cc1ccc(Cl)cc1Nc1ccc(F)c([C@@]2(C)N=C(N)N(C)C(=O)C2(C)C)c1` [Example 118, (S)-2-Amino-6-(5-(5-chloro-2-methylphenylamino)-2-fluorophenyl)-3,5,5,6-tetramethyl-5,6-dihydropyrimidin-4(3H)-one] gave a pIC50 of 8.70. With `CCOC(=O)CC1CCC(Nc2ccc(F)c([C@@]3(C)N=C(N)N(C)C(=O)C3(C)C)c2)C1(C)C` (stereo partly drawn) [Example 98, {3-[3-((S)-2-Amino-1,4,5,5-tetramethyl-6-oxo-1,4,5,6-tetrahydro-pyrimidin-4-yl)-4-fluoro-phenylamino]-2,2-dimethyl-cyclopentyl}-acetic acid ethyl ester] the figure was 7.24. With `CC(CNc1ccc(F)c([C@@]2(C)N=C(N)N(C)C(=O)C2(C)C)c1)C(F)(F)F` (stereo partly drawn) [Example 83, (S)-2-Amino-6-[2-fluoro-5-(3,3,3-trifluoro-2-methyl-propylamino)-phenyl]-3,5,5,6-tetramethyl-5,6-dihydro-3H-pyrimidin-4-one] the figure was 7.92; with `CN1C(=O)C(C)(C)[C@@](C)(c2cc(NC(=O)C(F)(F)C(F)(F)F)ccc2F)N=C1N` [Example 6, N-[3-((S)-2-Amino-1,4,5,5-tetramethyl-6-oxo-1,4,5,6-tetrahydro-pyrimidin-4-yl)-4-fluoro-phenyl]-2,2,3,3,3-pentafluoro-propionamide], 6.46; with `Cc1cc(CNc2ccc(F)c([C@@]3(C)N=C(N)N(C)C(=O)C3(C)C)c2)no1` [Example 104, (S)-2-Amino-6-{2-fluoro-5-[(5-methyl-isoxazol-3-ylmethyl)-amino]-phenyl}-3,5,5,6-tetramethyl-5,6-dihydro-3H-pyrimidin-4-one], 8.40.

In turn, `CN1C(=O)C(C)(C)[C@@](C)(c2cc(NC(=O)C3(C)COC3)ccc2F)N=C1N` [Example 131] showed a pIC50 of 6.59.

As for `CN1C(=O)C(C)(C)[C@@](C)(c2cc(NC(=O)[C@H]3CC3(F)F)ccc2F)N=C1N` [Example 9, (R)-2,2-Difluoro-cyclopropanecarboxylic acid [3-((S)-2-amino-1,4,5,5-tetramethyl-6-oxo-1,4,5,6-tetrahydro-pyrimidin-4-yl)-4-fluoro-phenyl]-amide], the pIC50 is 7.60. In turn, `CCC[C@@]1(c2cccc(NC(=O)C3(C(F)(F)F)CC3)c2)CC(=O)N(C)C(N)=N1` [Example 14, 1-Trifluoromethyl-cyclopropanecarboxylic acid [3-((S)-2-amino-1-methyl-6-oxo-4-propyl-1,4,5,6-tetrahydro-pyrimidin-4-yl)-phenyl]-amide] showed a pIC50 of 6.92. With `CN1C(=O)C(C)(C)[C@@](C)(c2cc(Nc3ccnn3C)ccc2F)N=C1N` [Example 36, (S)-2-Amino-6-[2-fluoro-5-(2-methyl-2H-pyrazol-3-ylamino)-phenyl]-3,5,5,6-tetramethyl-5,6-dihydro-3H-pyrimidin-4-one] the figure was 6.27. To `CN1C(=O)C(C)(C)[C@@](C)(c2cc(NC3CCOCC3)ccc2F)N=C1N` [Example 50, (S)-2-Amino-6-[2-fluoro-5-(tetrahydro-pyran-4-ylamino)-phenyl]-3,5,5,6-tetramethyl-5,6-dihydro-3H-pyrimidin-4-one] belongs 7.66; to `CN1C(=O)C(C)(C)[C@@](C)(c2cc(NC3CCc4cc(Cl)cnc43)ccc2F)N=C1N` (stereo partly drawn) [Example 62, (6S)-2-Amino-6-(5-(3-chloro-6,7-dihydro-5H-cyclopenta[b]pyridin-7-ylamino)-2-fluorophenyl)-3,5,5,6-tetramethyl-5,6-dihydropyrimidin-4(3H)-one], 9.00. With `COc1cc(F)ccc1Nc1ccc(F)c([C@@]2(C)N=C(N)N(C)C(=O)C2(C)C)c1` [Example 82, (S)-2-Amino-6-(2-fluoro-5-(4-fluoro-2-methoxyphenylamino)phenyl)-3,5,5,6-tetramethyl-5,6-dihydropyrimidin-4(3H)-one] the figure was 6.87; with `CN1C(=O)C(C)(C)[C@@](C)(c2cc(NC3CCN(Cc4ccccc4)CC3)ccc2F)N=C1N` [Example 43, (S)-2-Amino-6-[5-(1-benzyl-piperidin-4-ylamino)-2-fluoro-phenyl]-3,5,5,6-tetramethyl-5,6-dihydro-3H-pyrimidin-4-one], 6.68; with `CN1C(=O)C(C)(C)[C@@](C)(c2cccc(NC(=O)C3(C(F)(F)F)CC3)c2)N=C1N` [Example 2, 1-Trifluoromethyl-cyclopropanecarboxylic acid [3-((R)-2-amino-1,4,5,5-tetramethyl-6-oxo-1,4,5,6-tetrahydro-pyrimidin-4-yl)-phenyl]-amide], 7.09.

For the origin of these results see patent publication US8815881B2 (Hoffmann-La Roche Inc., priority 2010, dated 2014).
